From ChEMBL document CHEMBL3638030, “IC50 data for the L-type calcium channel extracted from a set of literature articles” come the findings set out here.

Usually IC50 stands for the concentration that gives 50% inhibition.

Experiment [1] addresses T1, Voltage-dependent L-type calcium channel subunit alpha-1C (Rattus norvegicus, UniProt P22002). Nature of the experiment: (§1) Inhibition of Cav1.2 calcium current measured using whole cell patch clamp in rat ventricular myocytes. It is filed as functional, cell-based, Heart, Ventricular myocyte. Also on record: ca sol conc 2 mM, temp 22-24 C. (In general: The patch-clamp technique gives a direct electrical read-out from membranes.)

Experiment [2] has as its target T1, Voltage-dependent L-type calcium channel subunit alpha-1C. The experiment is described as follows: Inhibition of Cav1.2 calcium current measured using whole cell patch clamp in rat Vascular smooth muscle cells. It is filed as functional, cell-based. Set-up: ca sol conc 0 (Barium used instead) mM, temp 22 C.
The target is the same in experiment [3]. The experiment is described as follows: (§2) Inhibition of Cav1.2 calcium current measured using whole cell patch clamp in rat myocyte. It is filed as functional, Heart, Cardiac Muscle Cell. Also on record: ca sol conc 1.2 mM, temp 22 C.
In experiment [4] the target is T2, Voltage-dependent L-type calcium channel subunit alpha-1C (Cavia porcellus, UniProt O35505). The experiment is described as follows: (§3) Inhibition of Cav1.2 calcium current measured using whole cell patch clamp in guinea pig ventricular myocytes. It is filed as functional, cell-based, Heart, Ventricular myocyte. Also on record: ca sol conc 1.8 mM, temp 35 pm 0.5 C.

In experiment [5] the target is T1, Voltage-dependent L-type calcium channel subunit alpha-1C. The experiment is described as follows: (§4) Inhibition of Cav1.2 calcium current measured using whole cell patch clamp in rat ventricular myocytess. The class given is functional, cell-based, Heart, Ventricular myocyte. Also on record: ca sol conc 1.8 mM, temp 20-22 C.
For experiment [6], the target named is T2, Voltage-dependent L-type calcium channel subunit alpha-1C. The description is as §3. It is filed as functional, cell-based, Heart, Ventricular myocyte. Also on record: ca sol conc 2 mM, temp 21-23 C.
Experiment [7] concerns the target T3, Voltage-dependent L-type calcium channel subunit alpha-1C (Mus musculus, UniProt Q01815). Nature of the experiment: Inhibition of Cav1.2 calcium current measured using whole cell patch clamp in mouse ventricular myocytes. The class given is functional, cell-based, Heart, Ventricular myocyte. Also on record: ca sol conc 1.8 mM, temp room.
Experiment [8] deals with T4, Voltage-dependent L-type calcium channel subunit alpha-1C (Homo sapiens, UniProt Q13936). Nature of the experiment: (§5) Inhibition of Cav1.2 calcium current measured using whole cell patch clamp in human atrial myocytes. It is filed as functional, cell-based, Heart, Cardiac Muscle Cell. Also on record: ca sol conc 1.8 mM, temp 25 C.
Experiment [9] deals with T2, Voltage-dependent L-type calcium channel subunit alpha-1C. Nature of the experiment: Inhibition of Cav1.2 calcium current measured using whole cell patch clamp in guinea pig atrial myocytes. It is filed as functional, cell-based, Heart, Cardiac Muscle Cell. Also on record: ca sol conc 2 mM, temp 22 pm 1 C.
The target is the same in experiment [10]. The experiment is described as follows: Inhibition of Cav1.2 calcium current measured using whole Cell patch clamp in guinea pig ventricular myocytes. It is filed as functional, cell-based, Heart, Ventricular myocyte. Also on record: ca sol conc 1.8 mM.
For experiment [11], the target named is T4, Voltage-dependent L-type calcium channel subunit alpha-1C. The experiment is described as §5. The class given is functional, cell-based, Heart, Cardiac Muscle Cell. Set-up: ca sol conc 2 mM, temp 22/37 C.
In experiment [12] the target is T2, Voltage-dependent L-type calcium channel subunit alpha-1C. The experiment is described as §3. Set-up: ca sol conc 2 mM, temp 22/37 C. It is filed as functional, cell-based, Heart, Ventricular myocyte.
The target is the same in experiment [13]. Nature of the experiment: Inhibition of Cav1.2 calcium current measured using whole cell patch clamp in guinea pig tracheal smooth muscle cells. Also on record: ca sol conc 5 - Barium mM, temp 35 C. It is filed as functional, tissue-based, Trachea.
Experiment [14] shares this target. Described as §3. It is filed as functional, cell-based, Heart, Ventricular myocyte. Also on record: ca sol conc 1.2 mM, temp 24 pm 1 C.
Experiment [15] deals with T1, Voltage-dependent L-type calcium channel subunit alpha-1C. The experiment is described as §4. It is filed as functional, cell-based, Heart, Ventricular myocyte. Also on record: ca sol conc 2 mM, temp 22-24 C.
For experiment [16], the target named is T2, Voltage-dependent L-type calcium channel subunit alpha-1C. The experiment is described as §3. The class given is functional, cell-based, Heart, Ventricular myocyte. Also on record: ca sol conc 1.8 mM, temp 37 C.
In experiment [17] the target is T1, Voltage-dependent L-type calcium channel subunit alpha-1C. The description is as §1. Set-up: ca sol conc 1.8 mM, temp 22-26 C. The class given is functional, cell-based, Heart, Ventricular myocyte.
The target in experiment [18] is T2, Voltage-dependent L-type calcium channel subunit alpha-1C. The experiment is described as §3. It is filed as functional, cell-based, Heart, Ventricular myocyte. Also on record: ca sol conc 1.8 mM, temp 20-24 C.
Experiment [19] addresses T5, Voltage-dependent L-type calcium channel subunit alpha-1C (Oryctolagus cuniculus, UniProt P15381). Nature of the experiment: (§6) Inhibition of Cav1.2 calcium current measured using whole cell patch clamp in rabbit ventricular myocytes. It is filed as functional, cell-based, Heart, Ventricular myocyte. Also on record: ca sol conc 1.8 mM, temp 23 C.
For experiment [20], the target named is T5, Voltage-dependent L-type calcium channel subunit alpha-1C. The description is as §6. It is filed as functional, cell-based, Heart, Ventricular myocyte. Set-up: ca sol conc 1.8 mM, temp 23 C. The source holds these as a separate data set.
The target is the same in experiment [21]. Described as §6. It is filed as functional, cell-based, Heart, Ventricular myocyte. Also on record: ca sol conc 1.8 mM, temp 34 C.
Experiment [22] has as its target T1, Voltage-dependent L-type calcium channel subunit alpha-1C. The description is as §2. The class given is functional, Heart, Cardiac Muscle Cell. Also on record: ca sol conc 1.8 mM.
Experiment [23] is described as follows: Inhibition of Cav1.2 calcium current measured using whole cell patch clamp in mouse/rat NG108-15. It is filed as functional, cell-based. Set-up: ca sol conc 1.8 mM, temp 20-25 C.
Experiment [24] concerns the target T2, Voltage-dependent L-type calcium channel subunit alpha-1C. Described as §3. Also on record: ca sol conc 1.8 mM, temp 36 C. The class given is functional, cell-based, Heart, Ventricular myocyte.
Experiment [25] deals with T3, Voltage-dependent L-type calcium channel subunit alpha-1C. Nature of the experiment: Inhibition of Cav1.2 calcium current measured using in mouse dorsal root ganglion neuron. It is filed as functional, tissue-based. Also on record: temp 20-23 C.

T5 sequence (P15381 whole entry): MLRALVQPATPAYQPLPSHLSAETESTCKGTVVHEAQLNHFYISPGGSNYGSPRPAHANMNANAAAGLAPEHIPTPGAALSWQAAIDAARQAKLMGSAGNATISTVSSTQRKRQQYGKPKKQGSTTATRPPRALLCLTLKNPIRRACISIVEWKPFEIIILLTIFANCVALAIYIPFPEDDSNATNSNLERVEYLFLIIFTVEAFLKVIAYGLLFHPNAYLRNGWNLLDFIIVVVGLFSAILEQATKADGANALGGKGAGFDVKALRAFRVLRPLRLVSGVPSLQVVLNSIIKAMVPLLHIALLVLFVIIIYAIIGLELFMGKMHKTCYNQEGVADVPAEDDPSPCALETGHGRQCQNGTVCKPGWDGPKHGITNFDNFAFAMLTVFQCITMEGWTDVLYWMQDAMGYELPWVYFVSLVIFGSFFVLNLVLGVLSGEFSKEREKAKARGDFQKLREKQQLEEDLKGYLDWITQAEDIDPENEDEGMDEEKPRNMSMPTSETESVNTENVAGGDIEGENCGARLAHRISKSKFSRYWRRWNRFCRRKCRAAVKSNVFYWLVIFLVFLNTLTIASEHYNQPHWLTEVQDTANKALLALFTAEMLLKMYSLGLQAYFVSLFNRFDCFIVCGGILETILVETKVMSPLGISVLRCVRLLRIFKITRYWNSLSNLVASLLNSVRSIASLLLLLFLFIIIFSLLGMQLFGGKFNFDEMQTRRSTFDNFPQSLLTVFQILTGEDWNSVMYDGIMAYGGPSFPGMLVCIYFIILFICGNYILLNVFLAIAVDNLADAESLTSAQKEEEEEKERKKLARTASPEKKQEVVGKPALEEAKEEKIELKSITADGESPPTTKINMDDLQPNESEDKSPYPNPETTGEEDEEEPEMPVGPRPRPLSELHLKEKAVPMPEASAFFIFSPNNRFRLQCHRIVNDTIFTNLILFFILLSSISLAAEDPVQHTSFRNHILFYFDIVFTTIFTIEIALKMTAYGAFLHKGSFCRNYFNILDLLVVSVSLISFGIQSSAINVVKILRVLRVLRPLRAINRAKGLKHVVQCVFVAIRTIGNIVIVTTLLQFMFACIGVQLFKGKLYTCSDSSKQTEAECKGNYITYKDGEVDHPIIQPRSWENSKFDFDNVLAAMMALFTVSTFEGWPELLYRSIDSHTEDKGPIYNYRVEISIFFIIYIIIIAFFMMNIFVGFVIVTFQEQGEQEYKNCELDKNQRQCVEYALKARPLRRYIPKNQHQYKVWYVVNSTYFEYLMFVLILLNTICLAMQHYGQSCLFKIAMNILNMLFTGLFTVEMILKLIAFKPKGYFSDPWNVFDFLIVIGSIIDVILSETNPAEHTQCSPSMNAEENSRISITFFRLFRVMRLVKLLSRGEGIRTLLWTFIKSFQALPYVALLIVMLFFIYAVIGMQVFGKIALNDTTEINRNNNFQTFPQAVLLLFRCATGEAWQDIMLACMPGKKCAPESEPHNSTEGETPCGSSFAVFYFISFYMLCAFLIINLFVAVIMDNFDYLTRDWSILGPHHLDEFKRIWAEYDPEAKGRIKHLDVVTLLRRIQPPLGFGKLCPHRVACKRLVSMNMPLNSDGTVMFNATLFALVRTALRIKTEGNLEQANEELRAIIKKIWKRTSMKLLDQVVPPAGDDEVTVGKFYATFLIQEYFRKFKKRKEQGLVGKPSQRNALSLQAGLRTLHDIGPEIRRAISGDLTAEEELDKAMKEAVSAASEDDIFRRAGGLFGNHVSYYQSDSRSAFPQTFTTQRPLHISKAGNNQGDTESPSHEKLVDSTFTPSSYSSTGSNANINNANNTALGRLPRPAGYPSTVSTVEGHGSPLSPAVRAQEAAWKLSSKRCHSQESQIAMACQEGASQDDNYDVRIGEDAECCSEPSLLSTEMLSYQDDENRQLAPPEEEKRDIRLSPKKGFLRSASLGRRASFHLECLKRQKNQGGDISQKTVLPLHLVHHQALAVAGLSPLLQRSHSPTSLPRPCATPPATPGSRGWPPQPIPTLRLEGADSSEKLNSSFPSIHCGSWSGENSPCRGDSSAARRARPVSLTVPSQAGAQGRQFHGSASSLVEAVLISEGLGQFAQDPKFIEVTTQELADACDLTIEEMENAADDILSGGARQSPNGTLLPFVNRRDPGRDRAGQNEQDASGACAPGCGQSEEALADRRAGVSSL
T2 sequence (O35505 whole entry): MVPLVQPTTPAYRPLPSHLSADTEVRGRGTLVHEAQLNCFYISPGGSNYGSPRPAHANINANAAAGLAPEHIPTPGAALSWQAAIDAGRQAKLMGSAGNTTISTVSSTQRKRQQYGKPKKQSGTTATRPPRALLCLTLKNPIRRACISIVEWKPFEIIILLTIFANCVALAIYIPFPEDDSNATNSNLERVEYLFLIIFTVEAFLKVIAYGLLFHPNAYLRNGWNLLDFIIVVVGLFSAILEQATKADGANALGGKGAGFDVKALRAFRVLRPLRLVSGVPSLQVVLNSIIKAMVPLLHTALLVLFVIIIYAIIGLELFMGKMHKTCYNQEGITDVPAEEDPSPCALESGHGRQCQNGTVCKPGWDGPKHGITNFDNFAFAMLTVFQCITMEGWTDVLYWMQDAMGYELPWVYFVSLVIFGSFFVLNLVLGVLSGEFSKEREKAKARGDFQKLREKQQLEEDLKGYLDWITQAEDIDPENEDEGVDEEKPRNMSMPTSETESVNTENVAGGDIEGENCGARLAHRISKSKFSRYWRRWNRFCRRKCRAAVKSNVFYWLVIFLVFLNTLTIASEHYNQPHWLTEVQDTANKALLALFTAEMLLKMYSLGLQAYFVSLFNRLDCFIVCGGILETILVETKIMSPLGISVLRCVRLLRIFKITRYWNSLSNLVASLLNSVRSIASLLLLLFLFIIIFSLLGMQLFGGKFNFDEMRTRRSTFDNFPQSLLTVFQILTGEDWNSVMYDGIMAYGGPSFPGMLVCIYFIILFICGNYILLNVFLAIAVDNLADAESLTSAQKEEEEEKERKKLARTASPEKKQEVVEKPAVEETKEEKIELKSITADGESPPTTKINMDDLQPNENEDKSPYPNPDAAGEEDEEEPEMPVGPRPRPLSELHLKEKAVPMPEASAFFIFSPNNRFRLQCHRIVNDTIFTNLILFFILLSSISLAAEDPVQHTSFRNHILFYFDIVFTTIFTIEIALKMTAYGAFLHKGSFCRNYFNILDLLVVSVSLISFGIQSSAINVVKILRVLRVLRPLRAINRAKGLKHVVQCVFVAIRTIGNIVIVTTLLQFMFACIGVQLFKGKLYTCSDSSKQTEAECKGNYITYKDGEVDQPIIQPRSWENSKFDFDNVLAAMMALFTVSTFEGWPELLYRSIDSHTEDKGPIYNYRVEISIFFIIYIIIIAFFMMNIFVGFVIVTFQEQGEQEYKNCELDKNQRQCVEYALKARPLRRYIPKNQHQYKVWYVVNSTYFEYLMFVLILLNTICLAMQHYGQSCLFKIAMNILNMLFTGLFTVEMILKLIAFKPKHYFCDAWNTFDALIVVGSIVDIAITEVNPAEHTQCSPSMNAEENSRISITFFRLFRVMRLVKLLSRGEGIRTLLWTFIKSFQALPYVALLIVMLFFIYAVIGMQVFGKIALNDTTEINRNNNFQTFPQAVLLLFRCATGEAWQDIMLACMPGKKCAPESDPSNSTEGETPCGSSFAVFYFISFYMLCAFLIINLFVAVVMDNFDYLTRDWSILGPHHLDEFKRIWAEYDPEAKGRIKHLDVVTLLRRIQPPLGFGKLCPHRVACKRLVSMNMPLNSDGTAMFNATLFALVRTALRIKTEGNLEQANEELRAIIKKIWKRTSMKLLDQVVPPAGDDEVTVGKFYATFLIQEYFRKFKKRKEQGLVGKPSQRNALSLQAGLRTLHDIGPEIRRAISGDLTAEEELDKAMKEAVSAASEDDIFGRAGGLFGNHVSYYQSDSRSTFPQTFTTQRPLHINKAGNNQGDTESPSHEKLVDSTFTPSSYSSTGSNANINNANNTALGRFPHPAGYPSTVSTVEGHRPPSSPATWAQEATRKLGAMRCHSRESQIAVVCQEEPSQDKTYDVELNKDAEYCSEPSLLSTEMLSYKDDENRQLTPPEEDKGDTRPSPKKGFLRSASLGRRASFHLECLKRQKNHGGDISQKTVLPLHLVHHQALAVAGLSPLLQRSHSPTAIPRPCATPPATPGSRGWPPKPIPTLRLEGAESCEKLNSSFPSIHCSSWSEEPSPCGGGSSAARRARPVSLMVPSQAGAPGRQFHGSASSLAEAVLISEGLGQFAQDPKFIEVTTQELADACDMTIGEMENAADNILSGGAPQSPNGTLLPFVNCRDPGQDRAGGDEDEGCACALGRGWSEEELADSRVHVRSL

Regarding `C=C(C)[C@@H]1CCC(C)=C[C@H]1c1c(O)cc(CCCCC)cc1O` [CANNABIDIOL], the half-inhibitory concentration (IC50) in experiment [1] amounted to 100 nM.
Take `CCC1=C[C@@H]2CN3CCc4c([nH]c5ccccc45)[C@@](C(=O)OC)(C2)[C@@H]13` [CATHARANTHINE BASE]: the IC50 worked out at 8.4 µM in experiment [2] and 224 µM in [3].
In the case of `Cc1c(C)c2c(c(C)c1O)CCC(C)(COc1ccc(CC3SC(=O)NC3=O)cc1)O2` (stereo not given) [TROGLITAZONE], the IC50 in experiment [4] is 800 nM.
On to `O=C1C=CC[C@H](C[C@@H](O)CCc2ccc(O)cc2)O1`, for which the IC50 in [5] came to 3.2 µM.
Take `CCCN1CCCC[C@H]1C(=O)Nc1c(C)cccc1C` [ROPIVACAINE]: in experiment [6], the IC50 is 430 µM.
In the case of `CCN1CCC(CC(NC(=O)c2ccc([N+](=O)[O-])cc2)c2ccc(F)cc2)CC1` (stereo not given), in experiment [7], the concentration for half-maximal inhibition (IC50) was 100 µM.
`CNC1(c2ccccc2Cl)CCCCC1=O` (stereo not given) [KETAMINE]: the IC50 in experiment [8] is 1800 nM.
For `CCCC(C)C1(CC)C(=O)NC(=S)NC1=O` (stereo not given) [THIOPENTAL], the 50% inhibitory concentration (IC50) in experiment [9] was determined as 280 nM.
With `Cc1ccc(-c2cc(C(F)(F)F)nn2-c2ccc(S(N)(=O)=O)cc2)cc1` [CELECOXIB], in experiment [10], the IC50 was determined as 10.6 µM.
For `CCCOC(C(=O)OC1CCN(C)CC1)(c1ccccc1)c1ccccc1` [PROPIVERINE], the IC50 in experiment [11] is 41.7 µM; in experiment [12], 34.7 µM.
As for `CN1CCCC(n2nc(Cc3ccc(Cl)cc3)c3ccccc3c2=O)CC1` (stereo not given) [AZELASTINE], in experiment [13], the half-inhibitory concentration (IC50) stood at 8 µM.
As to `CCN(CC)CCCC(C)Nc1c2ccc(Cl)cc2nc2ccc(OC)cc12` (stereo not given) [QUINACRINE], in experiment [14], the concentration for half-maximal inhibition (IC50) is 5.6 µM.
Take `CCCCC/C=C\C/C=C\C/C=C/C/C=C\CCCC(=O)NCCO`: the 50% inhibitory concentration (IC50) in experiment [15] is 100 nM.
As to `COC(=O)C1=CCCN(C)C1` [ARECOLINE], the IC50 in experiment [16] was determined as 33.7 µM.
`Oc1c(CN2CCCC2)cc(Nc2ncnc3ccccc23)cc1CN1CCCC1` [CHANGROLIN]: in experiment [17], the concentration for half-maximal inhibition (IC50) stood at 74.7 µM.
Take `COc1ccc(S(=O)(=O)NCc2cc(CN3CCCC3)c(O)c(CN3CCCC3)c2)cc1` [SULCARDINE]: the IC50 in [18] is 69.2 µM.
For the molecule `CC(C)(C)OC(=O)N1CC2CC(CN(C[C@H](O)COc3ccc(C#N)cc3)C2)C1`, the figures for the concentration for half-maximal inhibition (IC50) in experiment [19] and in experiment [20] were 6 µM and 1300 nM, respectively.
With `COc1ccccc1OCCNCC(O)COc1cccc2[nH]c3ccccc3c12` (stereo not given) [CARVEDILOL], the half-inhibitory concentration (IC50) in experiment [21] stood at 3.59 µM.
As for `CC(/N=C(\NC#N)Nc1ccc(OC(F)F)cc1)C(C)(C)C` (stereo not given), in experiment [22], the IC50 was 24.1 µM.
With `Cc1cc(O)c(C(C)C)cc1CN1CCCCC1`, in experiment [23], the IC50 was 3.6 µM.
On to `CCCCc1oc2ccc(NS(C)(=O)=O)cc2c1C(=O)c1ccc(OCCCN(CCCC)CCCC)cc1` [DRONEDARONE], for which, in experiment [24], the IC50 worked out at 400 nM.
For the molecule `CC(C)(c1ccc(O)cc1)c1ccc(O)cc1` [BISPHENOL A], in experiment [25], the IC50 stood at 35 µM.
